Conditions in all cases: PKIS2 primary screening
Series [1] has as its system SH-SY5Y cells. Put plainly: Nuclear count from microscopy images (cellular growth and toxicity). Note: reference of the scale not given here.
Series [2] has as its system SH-SY5Y cells. Put plainly: AK (adenylate kinase) release ToxiLight cytotoxicity assay. Note: reference of the scale not given here.
For series [3], the system named is endogenous TFEB. Put plainly: TFEB nuclear translocation, immunocytochemistry high-content imaging. The series is classed as cell-based.
For series [4], the system named is endogenous TFE3. The experiment in a line: TFE3 nuclear translocation, immunocytochemistry high-content imaging. It counts as cell-based.
Series [5] has as its system SH-SY5Y cells.
Excerpt: The PKIS2 Library was supplied by The Structural Genomics Consortium at the University of North Carolina at Chapel Hill.

Molecules are shown by their SMILES. Like-named read-outs stand apart in the source and are kept apart here.
Throughout, for DQ Intensity: reference of the scale not given here.
Throughout, for DQ Spot: reference of the scale not given here.

As for `Cc1nnc(-c2ccc(C)c(-c3ccc(C(=O)O)cc3)c2)o1` [UNC10225501A], in series [1], the “Nuclear Count” value amounted to 117.94. For the same molecule, the AK in series [2] was 95.30. For the same molecule, the TFEB % in series [3] was 7.30%. For the same molecule, in series [4], the TFE3 % is listed as 10.21%. In series [5], the “DQ Intensity” value is 75.58 and the “DQ Spot” value was 83.30.
Take `Cc1cccc2c(-c3ccncn3)c(-c3ccc(F)cc3)nn12` [UNC10225097A]: the “Nuclear Count” value in series [1] is listed as 79.09. The molecule further returned an AK in series [2] of 80.54. Further, the TFEB % in series [3] worked out at 5.54%. Also, the TFE3 % in series [4] is given as 7.36%. In series [5], the “DQ Intensity” value worked out at 92.70 and the “DQ Spot” value is recorded as 100.21.
On to `FC(F)(F)c1ccccc1-c1cc(-c2c[nH]nc2-c2ccccn2)ccn1` [UNC10225184A], for which the “Nuclear Count” value in series [1] amounted to 131.35. The AK in series [2] is reported as 124.66. In series [3], this molecule showed a TFEB % of 5.60%. This molecule also showed a TFE3 % in series [4] of 4.50%. In series [5] (DQ Red BSA intensity), the “DQ Intensity” value is reported as 88.51. Also, the “DQ Spot” value in series [5] (DQ Red BSA spot count) was 92.76.
As for `Oc1cc(Nc2ccnc3cc(I)ccc23)ccc1F` [UNC10225441A], the “Nuclear Count” value in series [1] came out at 104.34. Also, the AK in series [2] was 73.72. In series [3], this molecule gave a TFEB % of 12.97%. In series [4], the TFE3 % was 8.03%. Also, the “DQ Intensity” value in series [5] (DQ Red BSA intensity) was found to be 124.88. In addition, the “DQ Spot” value in series [5] (DQ Red BSA spot count) is 110.03.
Consider `Nc1nccc(-c2c(-c3ccc(F)cc3)ncn2C2CCN(Cc3ccccc3)CC2)n1` [UNC10225058A], for which the “Nuclear Count” value in series [1] was determined as 98.98. Moreover, the AK in series [2] came out at 75.20. Also, the TFEB % in series [3] turned out to be 3.25%. The TFE3 % in series [4] worked out at 7.38%. For the same molecule, in series [5], the “DQ Intensity” value is reported as 142.65 and the “DQ Spot” value worked out at 129.81.
As to `Cc1cccc(-c2cc(-c3c[nH]nc3-c3ccccn3)ccn2)c1` [UNC10225499A], the “Nuclear Count” value in series [1] was determined as 133.11. The same molecule came in with an AK in series [2] of 88.92. The molecule also came in with a TFEB % in series [3] of 5.43%. The TFE3 % in series [4] is on record as 5.64%. The “DQ Intensity” value in series [5] (DQ Red BSA intensity) turned out to be 88.33. Further, the “DQ Spot” value in series [5] (DQ Red BSA spot count) stood at 90.33.
Turning to `O=C(NCC1CC1)c1ccc(-c2cc(C(=O)NC3CC3)ccc2F)cc1` [UNC10224986A], the “Nuclear Count” value in series [1] came to 97.72. The molecule also had an AK in series [2] of 72.27. The same molecule registered a TFEB % in series [3] of 5.16%. Besides, the TFE3 % in series [4] was 10.56%. Also, in series [5], the “DQ Intensity” value turned out to be 92.71 and the “DQ Spot” value is 109.74.
Consider `CCS(=O)(=O)c1ccc(OC)c(Nc2nccc(-c3c(-c4cccc(NC(=O)c5c(F)cccc5F)c4)nn4ncccc34)n2)c1` [UNC10225342A], for which, in series [1], the “Nuclear Count” value was 104.33. The AK in series [2] is given as 86.17. The molecule also showed a TFEB % in series [3] of 6.81%. In series [4], this molecule came in with a TFE3 % of 13.07%. In addition, in series [5], the “DQ Intensity” value is 69.43 and the “DQ Spot” value was 80.86.
On to `COc1cc2nccc(Nc3ccc(OCc4ccc(NC(C)=O)cc4)cc3)c2cc1OC.Cl` [UNC10225233A], for which, in series [1], the “Nuclear Count” value is listed as 125.55. For the same molecule, in series [2], the AK is 100.23. In series [3], this molecule came in with a TFEB % of 5.84%. The molecule further returned a TFE3 % in series [4] of 18.79%. Moreover, in series [5] (DQ Red BSA intensity), the “DQ Intensity” value came to 120.40. Further, the “DQ Spot” value in series [5] (DQ Red BSA spot count) is given as 99.45.
On to `CN1C(=O)C(Nc2ccc(Cl)c(C(=O)O)c2)=C(c2ccc(Cl)cc2)C1=O` [UNC10225406A], for which the “Nuclear Count” value in series [1] was 91.26. The molecule also displayed an AK in series [2] of 75.31. In series [3], the TFEB % amounted to 3.59%. The same molecule returned a TFE3 % in series [4] of 10.12%. Besides, in series [5] (DQ Red BSA intensity), the “DQ Intensity” value worked out at 120.55. For the same molecule, the “DQ Spot” value in series [5] (DQ Red BSA spot count) amounted to 105.90.
Turning to `CCn1c(-c2nonc2N)nc2c(-c3ccccc3)ncc(OCCCN)c21.O=C(O)C(F)(F)F.O=C(O)C(F)(F)F` [UNC10225047A], in series [1], the “Nuclear Count” value is on record as 137.54. Also, the AK in series [2] stood at 103.12. Besides, the TFEB % in series [3] was 27.76%. In series [4], this molecule yielded a TFE3 % of 79.68%. Also, in series [5], the “DQ Intensity” value is given as 51.60 and the “DQ Spot” value was 50.36.
With `Fc1ccc(-c2nn3cccc(F)c3c2-c2ccncc2)cc1` [UNC10225116A], in series [1], the “Nuclear Count” value worked out at 80.47. The AK in series [2] is on record as 96.78. This molecule also showed a TFEB % in series [3] of 9.32%. This molecule also yielded a TFE3 % in series [4] of 11.01%. For the same molecule, the “DQ Intensity” value in series [5] (DQ Red BSA intensity) was 138.45. Moreover, the “DQ Spot” value in series [5] (DQ Red BSA spot count) amounted to 107.80.
As for `CCn1c(-c2ccccc2)nc2cnccc21` [UNC10225407A], the “Nuclear Count” value in series [1] was determined as 99.61. This molecule also yielded an AK in series [2] of 88.86. In series [3], the TFEB % was 8.26%. In addition, the TFE3 % in series [4] came out at 8.88%. In addition, in series [5], the “DQ Intensity” value was determined as 107.17 and the “DQ Spot” value worked out at 104.42.

Source of the values: paper PMC9851200, “Multiparameter phenotypic screening for endogenous TFEB and TFE3 translocation identifies novel chemical series modulating lysosome function” (Autophagy, 2022).
